Assay results from patent publication US12390472B2 (SUZHOU SINOVENT PHARMACEUTICALS CO., LTD., priority 2018, dated 2025).

How the values were obtained:
EZH2 enzyme complex = EZH2 enzyme complex (Homo sapiens (Human), UniProt Q15910); experiment: Test on EZH2 inhibitory activity (TR-FRET); format: biochemical; details: EZH2 enzyme complex 25 ng/uL, histone H3 peptide 4 uM, SAM 2 uM, 300 min; read-out: IC50 of EZH2 inhibition
[1] = In vivo pharmacokinetic properties in mice; set-up: species or system mouse; details: male ICR mice; for F: intragastric 250 mg/kg vs intravenous 5 mg/kg; for CL / AUC(0-inf) / Cmax / Tmax / half-life: single intravenous 5 mg/kg and intragastric 250 mg/kg study; for AUC(0-inf) / Cmax / Tmax / half-life: mouse, plasma; for AUC(0-inf) / Cmax / Tmax: oral; for Cmax: read-out: Cmax; for Tmax: read-out: Tmax
Method: Male ICR mice were divided into different groups with 3 mice in each group, and single intravenous injection and single intragastric administration were conducted respectively. The compounds were formulated with 10% DMSO/90% (20% Captisol) to reach an appropriate concentration and then administered intravenously at 5 mg/kg. The compounds were formulated with 0.5% CMC-Na/0.1% Tween 80 (pH=3-4) to reach an appropriate concentration and then administered intragastrically at 250 mg/kg. Blood was taken at 5 min, 15 min, 30 min, 1 h, 2 h, 4 h, 6 h, 8 h and 24 h after administration, and then subjected to EDTA-K2 anticoagulation. The concentration of the compound in the plasma was quantitatively detected by an LC-MS/MS method.

EZH2 enzyme complex, sequence (Q15910 whole entry): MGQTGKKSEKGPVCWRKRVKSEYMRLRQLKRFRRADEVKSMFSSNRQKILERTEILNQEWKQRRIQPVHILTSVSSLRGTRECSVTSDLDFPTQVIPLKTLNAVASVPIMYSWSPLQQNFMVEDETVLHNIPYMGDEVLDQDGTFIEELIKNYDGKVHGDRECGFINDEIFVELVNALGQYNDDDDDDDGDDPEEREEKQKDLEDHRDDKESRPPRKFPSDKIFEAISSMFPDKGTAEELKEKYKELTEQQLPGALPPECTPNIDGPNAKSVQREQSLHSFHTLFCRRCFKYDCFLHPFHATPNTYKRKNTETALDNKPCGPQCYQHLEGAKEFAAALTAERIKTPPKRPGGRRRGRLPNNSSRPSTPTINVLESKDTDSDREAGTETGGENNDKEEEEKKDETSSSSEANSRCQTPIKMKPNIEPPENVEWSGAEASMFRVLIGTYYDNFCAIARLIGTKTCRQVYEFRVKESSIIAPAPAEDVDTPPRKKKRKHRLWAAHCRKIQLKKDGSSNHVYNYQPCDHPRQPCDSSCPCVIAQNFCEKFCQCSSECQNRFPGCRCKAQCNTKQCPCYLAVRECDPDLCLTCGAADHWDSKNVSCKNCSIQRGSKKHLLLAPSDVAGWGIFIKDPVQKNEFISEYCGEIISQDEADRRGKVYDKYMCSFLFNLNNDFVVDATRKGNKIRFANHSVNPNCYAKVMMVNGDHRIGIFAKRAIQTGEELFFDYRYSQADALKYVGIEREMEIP
EZH2 enzyme complex, sequence (O75530 whole entry partner): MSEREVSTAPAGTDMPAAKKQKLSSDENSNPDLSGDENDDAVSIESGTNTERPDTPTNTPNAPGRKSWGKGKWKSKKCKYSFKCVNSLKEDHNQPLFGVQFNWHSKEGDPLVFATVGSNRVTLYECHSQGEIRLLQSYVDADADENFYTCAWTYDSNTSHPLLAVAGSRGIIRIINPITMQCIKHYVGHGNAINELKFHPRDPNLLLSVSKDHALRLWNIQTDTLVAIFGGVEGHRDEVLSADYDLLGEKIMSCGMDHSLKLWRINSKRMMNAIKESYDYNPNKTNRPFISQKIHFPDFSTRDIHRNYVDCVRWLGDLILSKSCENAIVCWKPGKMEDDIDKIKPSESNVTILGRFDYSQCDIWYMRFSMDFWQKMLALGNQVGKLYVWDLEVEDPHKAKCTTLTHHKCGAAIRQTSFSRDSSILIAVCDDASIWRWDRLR
EZH2 enzyme complex, sequence (Q15022 whole entry partner): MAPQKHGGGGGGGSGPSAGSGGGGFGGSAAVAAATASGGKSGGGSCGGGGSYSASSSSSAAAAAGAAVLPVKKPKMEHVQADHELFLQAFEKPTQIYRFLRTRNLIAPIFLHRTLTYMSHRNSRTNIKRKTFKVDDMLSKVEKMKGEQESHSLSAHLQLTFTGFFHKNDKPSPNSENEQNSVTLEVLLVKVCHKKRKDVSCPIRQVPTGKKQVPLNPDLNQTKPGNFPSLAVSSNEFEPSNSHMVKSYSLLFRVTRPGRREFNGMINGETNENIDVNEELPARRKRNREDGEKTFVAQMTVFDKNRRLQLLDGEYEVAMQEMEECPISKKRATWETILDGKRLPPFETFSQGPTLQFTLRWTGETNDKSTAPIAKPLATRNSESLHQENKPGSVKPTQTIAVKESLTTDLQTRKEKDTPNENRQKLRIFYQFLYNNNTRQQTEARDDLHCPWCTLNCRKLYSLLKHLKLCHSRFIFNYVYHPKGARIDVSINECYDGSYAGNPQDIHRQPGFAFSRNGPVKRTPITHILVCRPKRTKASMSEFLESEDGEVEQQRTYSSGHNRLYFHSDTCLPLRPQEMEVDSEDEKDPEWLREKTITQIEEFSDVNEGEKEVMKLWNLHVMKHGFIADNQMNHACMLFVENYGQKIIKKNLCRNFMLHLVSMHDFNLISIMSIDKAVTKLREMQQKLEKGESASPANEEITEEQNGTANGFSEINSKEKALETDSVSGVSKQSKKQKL

Row | SMILES | IC50 (EZH2 enzyme complex) | other results
1 | CCN(c1cc(O[C@H]2C[C@H](N3CCOCC3)C2)cc(C(=O)NCc2c(C)cc(C)[nH]c2=O)c1Cl)C1CCOCC1 [Example 41, 2-chloro-N-((4,6-dimethyl-2-oxo-1,2-dihydropyridin-3-yl)methyl)-3-(ethyl(tetrahydro-2H-pyran-4-yl)amino)-5-(trans-3-morpholinylcyclobutoxy)benzamide] | 0.01 to 0.1 µM | 
2 | CCN(c1cc(O[C@H]2C[C@H](N3CCC(C)CC3)C2)cc(C(=O)NCc2c(C)cc(C(F)(F)F)[nH]c2=O)c1Cl)C1CCOCC1 [Example 90] | > 1 µM | 
3 | CCN(c1cc(O[C@H]2C[C@@H](N3CCNCC3)C2)cc(C(=O)NCc2c(C)cc(C)[nH]c2=O)c1Cl)C1CCOCC1 [Example 42, 2-chloro-N-((4,6-dimethyl-2-oxo-1,2-dihydropyridin-3-yl)methyl)-3-(ethyl(tetrahydro-2H-pyran-4-yl)amino)-5-(cis-3-(piperazin-1-yl)cyclobutoxy)benzamide] | 0.01 to 0.1 µM | 
4 | CCN(c1cc(O[C@H]2C[C@H](N3CCCCC3)C2)cc(C(=O)NCc2c(C)cc(C)[nH]c2=O)c1Cl)C1CCOCC1 [Example 66, 2-chloro-N-((4,6-dimethyl-2-oxo-1,2-dihydropyridin-3-yl)methyl)-3-(ethyl(tetrahydro-2H-pyran-4-yl)amino)-5-(trans-3-(piperidin-1-yl)cyclobutoxy)benzamide] |  | F [1]: 38.3%; CL [1]: 53.5 ± 13.44 mL/min/lg; AUC(0-inf) [1]: 31200 ng·h/mL; Cmax [1]: 16700 ± 4970 ng/mL; Tmax [1]: 0.42 ± 0.14 h; half-life [1]: 5.05 ± 0.75 h
5 | CCN(c1cc(C2CC2CN2CCOCC2)cc(C(=O)NCc2c(C)cc(C)[nH]c2=O)c1Cl)C1CCOCC1 (stereo not drawn) [Example 84, 2-chloro-N-((4,6-dimethyl-2-oxo-1,2-dihydropyridin-3-yl)methyl)-3-(ethyl(tetrahydro-2H-pyran-4-yl)amino)-5-(2-(morpholinylmethyl)cyclopropyl)benzamide] | 0.1 to 1 µM | 
6 | Cc1cc(C)c(CNC(=O)c2cc(OC3CCC3)cc(OC3CCOCC3)c2C)c(=O)[nH]1 [Example 5, 5-cyclobutoxy-N-((4,6-dimethyl-2-oxo-1,2-dihydropyridin-3-yl)methyl)-2-methyl-3-((tetrahydro-2H-pyran-4-yl)oxy)benzamide] | 0.1 to 1 µM | 
7 | CCN(c1cc(O[C@H]2C[C@H](N3CCNCC3)C2)cc(C(=O)NCc2c(C)cc(C)[nH]c2=O)c1Cl)C1CCOCC1 [Example 43, 2-chloro-N-((4,6-dimethyl-2-oxo-1,2-dihydropyridin-3-yl)methyl)-3-(ethyl(tetrahydro-2H-pyran-4-yl)amino)-5-(trans-3-(piperazin-1-yl)cyclobutoxy)benzamide] | 0.01 to 0.1 µM | 
8 | CCN(c1cc(O[C@H]2C[C@H](CN3CCOCC3)C2)cc(C(=O)NCc2c(C)cc(C)[nH]c2=O)c1F)C1CCOCC1 [Example 61, N-((4,6-dimethyl-2-oxo-1,2-dihydropyridin-3-yl)methyl)-3-(ethyl(tetrahydro-2H-pyran-4-yl)amino)-2-fluoro-5-(trans-3-(morpholinomethyl)cyclobutoxy)benzamide] | > 1 µM | 
9 | CCN(c1cc(O[C@H]2C[C@H](N3CC4CC(C3)O4)C2)cc(C(=O)NCc2c(C)cc(C)[nH]c2=O)c1C)C1CCOCC1 [Example 54, 5-(trans-3-(6-oxa-3-azabicyclo[3.1.1]heptan-3-yl)cyclobutoxy)-N-((4,6-dimethyl-2-oxo-1,2-dihydropyridin-3-yl)methyl)-3-(ethyl(tetrahydro-2H-pyran-4-yl)amino)-2-methylbenzamide] | 0.01 to 0.1 µM | 
10 | CCN(c1cc(O[C@H]2C[C@H](N3C[C@@H](C)O[C@@H](C)C3)C2)cc(C(=O)NCc2c(C)cc(C)[nH]c2=O)c1C)C1CCN(CC(F)(F)F)CC1 [Example 50, N-((4,6-dimethyl-2-oxo-1,2-dihydropyridin-3-yl)methyl)-5-(trans-3-(cis-2,6-dimethylmorpholinyl)cyclobutoxy)-3-(ethyl (1-(2,2,2-trifluoroethyl)piperidin-4-yl)amino)-2-methylbenzamide] | 0.01 to 0.1 µM | 
11 | CCN(c1cc(O[C@H]2C[C@@H](N3CCOCC3)C2)cc(C(=O)NCc2c(C)cc(C)[nH]c2=O)c1Cl)C1CCOCC1 [Example 40, 2-chloro-N-((4,6-dimethyl-2-oxo-1,2-dihydropyridin-3-yl)methyl)-3-(ethyl(tetrahydro-2H-pyran-4-yl)amino)-5-(cis-3-morpholinylcyclobutoxy)benzamide] | 0.01 to 0.1 µM | 
12 | CCN(c1cc(O[C@H]2C[C@H](N3CCOCC3)C2)cc(C(=O)NCc2c(C)cc(C)[nH]c2=O)c1C)C1CCOC1 (stereo partly drawn) [Example 64, N-((4,6-dimethyl-2-oxo-1,2-dihydropyridin-3-yl)methyl)-3-(ethyl(tetrahydrofuran-3-yl)amino)-2-methyl-5-(trans-3-morpholin-4-ylcyclobutoxy)benzamide] | 0.01 to 0.1 µM | 
13 | CCN(c1cc(O[C@H]2C[C@H](CN3CCOCC3)C2)cc(C(=O)NCc2c(C)cc(C)[nH]c2=O)c1C)[C@H]1CC[C@H](N(C)CCOC)CC1 [Example 32, N-((4,6-dimethyl-2-oxo-1,2-dihydropyridin-3-yl)methyl)-3-(ethyl(trans-4-((2-methoxyethyl)(methyl)amino)cyclohexyl)amino)-2-methyl-5-(trans-3-(morpholinylmethyl)cyclobutoxy)benzamide] | 0.01 to 0.1 µM | 
14 | CCN(c1cc(O[C@H]2C[C@H](N3C[C@@H](C)O[C@@H](C)C3)C2)cc(C(=O)NCc2c(C)cc(C)[nH]c2=O)c1C)C1CCOCC1 [Example 44, N-((4,6-dimethyl-2-oxo-1,2-dihydropyridin-3-yl)methyl)-5-(trans-3-(cis-2,6-dimethylmorpholinyl)cyclobutoxy)-3-(ethyl(tetrahydro-2H-pyran-4-yl)amino)-2-methylbenzamide] | 0.01 to 0.1 µM | 
15 | CCN(c1cc(O[C@H]2C[C@H](N3CCOCC3)C2)cc(C(=O)NCc2c(C)cc(C)[nH]c2=O)c1C)C1CC2CCC(C1)O2 (stereo partly drawn) [Example 86] |  | F [1]: 29.5%; CL [1]: 65.5 ± 1.60 mL/min/lg; AUC(0-inf) [1]: 18800 ± 4560 ng·h/mL; Cmax [1]: 21000 ± 8040 ng/mL; Tmax [1]: 0.25 h; half-life [1]: 4.19 ± 3.07 h
16 | CCN(c1cc(O[C@H]2C[C@H](N3CCC(C)CC3)C2)cc(C(=O)NCc2c(OC)cc(C)[nH]c2=O)c1Cl)C1CCOCC1 [Example 89] | 0.01 to 0.1 µM | 
17 | CCN(c1cc(C2CC2CN2CCN(C)CC2)cc(C(=O)NCc2c(C)cc(C)[nH]c2=O)c1C)[C@H]1CC[C@H](N(C)CCOC)CC1 (stereo partly drawn) [Example 81, N-((4,6-dimethyl-2-oxo-1,2-dihydropyridin-3-yl)methyl)-3-(ethyl(trans-4-((2-methoxyethyl)(methyl)amino)cyclohexyl)amino)-2-methyl-5-(2-((4-methylpiperazin-1-yl)methyl)cyclopropyl)benzamide] | 0.01 to 0.1 µM | 
